Data as given in EP0745595A1, “3-(3-Aryloxyphenyl)-1-(substituted methyl)-s-triazine-2,4,6-oxo or thiotrione herbicidal agents” (American Cyanamid Company, priority 1995, dated 1996).

Key:
Type in all cases: in vivo
[1] = test system: ZEA MAYS L.; assay: Postemergence herbicidal evaluation, ZEAMX (Corn, Field)
Outline: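 Corn seedlings were raised in jiffy flats for roughly two weeks, then sprayed postemergence with the test material dispersed in 50/50 acetone/water containing 0.5% TWEEN®20 surfactant, using a nozzle at 40 psi. Plants were kept on greenhouse benches under standard care and visually rated on a 0-9 scale four to five weeks after treatment.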

[2] = test system: CHENOPODIUM ALBUM, L.; assay: Postemergence herbicidal evaluation, CHEAL (Lambsquarters, Common)
Outline: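 Seedlings of common lambsquarters (Chenopodium album) were raised in jiffy flats for roughly two weeks, then sprayed postemergence through a nozzle at 40 psi with test compound dispersed in 50/50 acetone/water containing 0.5% TWEEN®20 surfactant. Plants were kept on greenhouse benches under standard care and rated visually on a 0-9 scale versus controls.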

[3] = test system: ECHINOCHLOA CRUS-GALLI, (L) BEAU; assay: Postemergence herbicidal evaluation, ECHCG (Barnyardgrass); design: key to ECHCG rating / Herbicidal effect rating, ECHCG / ECHCG: 0-9 visual rating scale vs untreated control
Outline: (§1)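 Visual 0–9 scores reflect stand, vigor, malformation, size, chlorosis and overall appearance relative to control, taken 4–5 weeks after spraying two-week-old seedlings with about 0.125–0.500 kg/ha compound in acetone/water/TWEEN 20.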

[4] = test system: ORYZA SATIVA, L. TEBONNET; assay: Rice tolerance to post-transplant applications under flooded paddy conditions, ORYSAT (Rice, Tebonnet); details: for ORYSAT herbicidal rating (rice tolerance): post-transplant rice, rated three to four weeks after treatment; for ORYSAT: post-transplanted rice;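 as to ORYSAT herbicidal rating (rice tolerance): applied to flooded soil surface three days after transplanting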
Outline: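 Post-transplant paddy test: compound applied 3 d after transplanting to flooded soil (1.5-3 cm water), ~0.063-0.5 kg/ha a.i., 50/50 aq/acetone. Silt loam, 2 × 10-d seedlings/pot. Greenhouse 3-4 wk, visual 0-9 score vs control.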

[5] = test system: SETARIA VIRIDIS, (L) BEAU; assay: Postemergence herbicidal evaluation, SETVI (Foxtail, Green); design: key to SETVI rating / Herbicidal effect rating, SETVI / SETVI: 0-9 visual rating scale vs untreated control
Outline: as §1

[6] = test system: GALIUM APARINE; assay: Postemergence herbicidal evaluation, GALAP (Galium); design: key to GALAP rating / Herbicidal effect rating, GALAP / GALAP: 0-9 visual rating scale vs untreated control
Outline: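 Galium (GALAP) seedlings were raised in jiffy flats for about two weeks, then sprayed with test compounds dispersed in 50/50 acetone/water containing 0.5% TWEEN®20, delivered through a nozzle at 40 psi. Plants were kept on greenhouse benches and visually rated 0-9 against a control four to five weeks later; repeat tests were averaged.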

[7] = test system: CHENOPODIUM ALBUM, L.; assay: Preemergence herbicidal evaluation, CHEAL (Lambsquarters, Common); details: four to five weeks after treatment
Outline: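 Injury scored visually (0–9; stand, vigor, malformation, size, chlorosis) versus untreated control, four to five weeks post-treatment. Application: aqueous acetone spray onto freshly planted soil cups, equivalent to about 0.125 to 0.50 kg/ha, plants then kept under standard greenhouse care.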

[8] = test system: AMBROSIA ARTEMISIIFOLIA, L.; assay: Postemergence herbicidal evaluation, AMBEL (Ragweed, Common)
Outline: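 Common ragweed (Ambrosia artemisiifolia) seedlings were raised in jiffy flats for roughly two weeks, then sprayed postemergence through a nozzle at 40 psi with the test compound dispersed in 50/50 acetone/water carrying 0.5% TWEEN®20. The plants were kept on greenhouse benches under conventional care. Four to five weeks later, injury was rated visually on a 0-9 scale, and repeat tests were averaged.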

[9] = test system: IPOMOEA SPP.; assay: Postemergence herbicidal evaluation, IPOSS (Morningglory spp.)
Outline: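 Seedlings of morningglory (Ipomoea spp.) were raised in jiffy flats for roughly two weeks. They were then sprayed postemergence through a nozzle at 40 psi with test compound dispersed in 50/50 acetone/water containing 0.5% TWEEN®20 surfactant. Plants were kept on greenhouse benches under standard care and visually rated 0-9 against controls four to five weeks after treatment.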

[10] = test system: ABUTILON THEOPHRASTI, MEDIC.; assay: Postemergence herbicidal evaluation, ABUTH (Velvetleaf)
Outline: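 Velvetleaf (Abutilon theophrasti) seedlings were raised in jiffy flats for about two weeks and then sprayed postemergence. The test compound was dispersed in a 50/50 acetone/water mixture containing 0.5% TWEEN®20 and applied through a nozzle operating at 40 psi. Plants were kept on greenhouse benches and rated 0-9 four to five weeks after treatment.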

[11] = test system: TRITICUM AESTIVUM, CV. APOLLO; assay: Postemergence herbicidal evaluation, TRZAWO (Wheat, Winter, CV. APOLLO)
Outline: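 Wheat seedlings, raised in jiffy flats for roughly two weeks, were sprayed postemergence with test compound dispersed in a 50/50 acetone/water mixture containing 0.5% TWEEN®20 surfactant, delivered through a nozzle at 40 psi. Plants were then kept on greenhouse benches under conventional care. Four to five weeks after treatment they were rated visually on a 0-9 scale against an untreated control, and ratings from repeated tests were averaged.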

Compound: COC(=O)Cn1c(=O)n(C)c(=O)n(-c2cc(Oc3ccc(C(F)(F)F)cc3Cl)ccc2[N+](=O)[O-])c1=O [Compound 3, Methyl 3-{5-[(2-chloro-α,α,α-trifluoro-p-tolyl)oxy]-2-nitrophenyl}tetrahydro-5-methyl-2,4,6-trioxo-s-triazine-1(2H)-acetate]
- Herbicidal effect rating, ZEAMX ([1]; 0.031 kg/ha): 4.6
- Herbicidal effect rating, ZEAMX ([1]; 0.063 kg/ha): 4.8
- Herbicidal effect rating, ZEAMX ([1]; 0.125 kg/ha): 5.8
- Herbicidal effect rating, ZEAMX ([1]; 0.250 kg/ha): 6.9
- Herbicidal effect rating, CHEAL ([2]; 0.031 kg/ha): 5.1
- Herbicidal effect rating, CHEAL ([2]; 0.063 kg/ha): 6.0
- Herbicidal effect rating, CHEAL ([2]; 0.125 kg/ha): 7.2
- Herbicidal effect rating, CHEAL ([2]; 0.250 kg/ha): 7.4
- Herbicidal effect rating, ECHCG ([3]; 0.031 kg/ha): 4.3
- Herbicidal effect rating, ECHCG ([3]; 0.063 kg/ha): 5.1
- Herbicidal effect rating, ECHCG ([3]; 0.125 kg/ha): 6.7
- Herbicidal effect rating, ECHCG ([3]; 0.250 kg/ha): 7.9
- ORYSAT herbicidal rating (rice tolerance) ([4]; Rate 0.063 kg/ha): 2.7
- ORYSAT herbicidal rating (rice tolerance) ([4]; Rate 0.125 kg/ha): 3.0
- ORYSAT herbicidal rating (rice tolerance) ([4]; Rate 0.250 kg/ha): 3.8
- ORYSAT herbicidal rating (rice tolerance) ([4]; Rate 0.500 kg/ha): 4.0
- ORYSAT ([4]; Rate 0.031 kg/ha): 1.0
- ORYSAT ([4]; Rate 0.063 kg/ha): 2.7
- ORYSAT ([4]; Rate 0.125 kg/ha): 3.0
- ORYSAT ([4]; Rate 0.250 kg/ha): 3.8
- Herbicidal effect rating, SETVI ([5]; 0.031 kg/ha): 3.9
- Herbicidal effect rating, SETVI ([5]; 0.063 kg/ha): 5.1
- Herbicidal effect rating, SETVI ([5]; 0.125 kg/ha): 6.8
- Herbicidal effect rating, SETVI ([5]; 0.250 kg/ha): 7.9
- Herbicidal effect rating, GALAP ([6]; 0.031 kg/ha): 8.2
- Herbicidal effect rating, GALAP ([6]; 0.063 kg/ha): 8.3
- Herbicidal effect rating, GALAP ([6]; 0.125 kg/ha): 8.7
- Herbicidal effect rating, GALAP ([6]; 0.250 kg/ha): 8.4
- CHEAL rating ([7]; Rate 0.125 kg/ha): 9.0
- CHEAL rating ([7]; Rate 0.250 kg/ha): 9.0
- CHEAL rating ([7]; Rate 0.500 kg/ha): 9.0
- Herbicidal effect rating, AMBEL ([8]; 0.031 kg/ha): 8.3
- Herbicidal effect rating, AMBEL ([8]; 0.063 kg/ha): 8.6
- Herbicidal effect rating, AMBEL ([8]; 0.125 kg/ha): 8.8
- Herbicidal effect rating, AMBEL ([8]; 0.250 kg/ha): 9.0
- Herbicidal effect rating, IPOSS ([9]; 0.031 kg/ha): 7.6
- Herbicidal effect rating, IPOSS ([9]; 0.063 kg/ha): 8.3
- Herbicidal effect rating, IPOSS ([9]; 0.125 kg/ha): 8.9
- Herbicidal effect rating, IPOSS ([9]; 0.250 kg/ha): 8.9
- Herbicidal effect rating, ABUTH ([10]; 0.031 kg/ha): 7.3
- Herbicidal effect rating, ABUTH ([10]; 0.063 kg/ha): 8.1
- Herbicidal effect rating, ABUTH ([10]; 0.125 kg/ha): 8.8
- Herbicidal effect rating, ABUTH ([10]; 0.250 kg/ha): 8.9
- Herbicidal effect rating, TRZAWO ([11]; 0.031 kg/ha): 6.1
- Herbicidal effect rating, TRZAWO ([11]; 0.063 kg/ha): 6.8
- Herbicidal effect rating, TRZAWO ([11]; 0.125 kg/ha): 7.1
- Herbicidal effect rating, TRZAWO ([11]; 0.250 kg/ha): 7.6
